From patent US20090209565A1, “THERAPEUTIC AGENT FOR INFLAMMATORY BOWEL DISEASE” (priority 2006, published 2009)

What was measured:
[1] = tested on: DSS-induced IBD model animals; test: Actions of improving the clinical conditions in DSS-induced IBD model; type: in vivo, mice; conditions: for Change in length of the large intestine (Ratio to the no treatment group, %): C57BL/6N mice, 3% DSS Day 0-4, drug Day 4-10, determined Day 11, control 73.4
Description: This test was performed according to the method described in PEDIATRIC RESEARCH, Vol. 53, No. 1, 143 to 147, 2003. In particular, mice (6-week-old, C57BL/6N Jcl, CLEA Japan, Inc.) were divided into groups of eight mice each such that average body weight was the same in each group on Day 0. […] Determination was made on the next day of the last administration of each drug (Day 11). As the evaluation index, the length of the large intestine and the rate of body weight change from the first day of the test (Day 0) to the last day of the test (Day 11) were measured.

[2] = tested on: intestinal epithelial cells; test: Inhibition of apoptosis of large intestinal epithelial cells in TNBS-induced colitis; type: in vivo, mouse; conditions: TNBS-induced colitis large intestine, Giemsa staining, 1000 cells per segment; TNBS alone 40.0±3.0%
Description: Large intestine affected by TNBS-induced colitis was subjected to Giemsa staining to stain the nucleus, and apoptosis of the intestinal epithelial cells was investigated (FIG. 3). Cells showing cell shrinkage or nucleus fragmentation were taken as apoptoic cells. 1000 cells in each segment were observed under the microscope, and the ratio of apoptotic cells (the apoptosis induction rate) was calculated (FIG. 4).

SD rats = conditions: 2000 mg/kg single oral dose in 0.5% HPMC, five male and five female SD rats
Description: 2000 mg/kg of Compound (1) was suspended in 0.5% HPMC solution, and orally administered at a single dose of 10 mL/kg to five male and five female SD rats (6-week-old).

[3] = Compound 100, prednisolone 5, 5-ASA 100 mg/kg/day

Row | Compound | Change in length of the large intestine (Ratio to the no treatment group, %) [1, 3] | ratio of apoptotic cells (apoptosis induction rate) [2] | weight loss (rate of body weight change from first day to determination day) ([1]; Day 0 to Day 11, printed as loss, prednisolone 5, 5-ASA 100 mg/kg/day, control loss 1.7±1.8) | Rate of body weight change (%, Mean ± SE) ([1]; Day 0 to Day 11, Compound 100, prednisolone 5, 5-ASA 100 mg/kg/day, control −1.7 ± 1.8, no treatment 3.7 ± 1.5) | death (SD rats)
1 | N=C1CCCN1Cc1[nH]c(=O)[nH]c(=O)c1Cl [Compound (I), 5-chloro-6-(2-iminopyrrolidin-1-yl)methyl-2,4(1H,3H)-pyrimidinedione] | 88.6% | 26.0±5.0% | – | – | –
2 | Nc1ccc(O)c(C(=O)O)c1 [Compound 5-ASA, 5-aminosalycilic acid] | 80.3% | – | 5.0±0.3% | −5.0 ± 0.3% | –
3 | Cl.N=C1CCCN1Cc1[nH]c(=O)[nH]c(=O)c1Cl [Compound (1), 5-chloro-6-(2-iminopyrrolidin-1-yl)methyl-2,4(1H,3H)-pyrimidinedione hydrochloride] | 88.6% | – | – | – | no case of death
4 | C[C@]12C=CC(=O)C=C1CC[C@@H]1[C@@H]2[C@@H](O)C[C@@]2(C)[C@H]1CC[C@]2(O)C(=O)CO [Prednisolone, prednisolone] | 93.2% | – | – | – | –
